Assay results taken from article PMC4303209, “A novel phosphatidylinositol 3-kinase (PI3K) inhibitor directs a potent FOXO-dependent, p53-independent cell cycle arrest phenotype characterized by the differential induction of a subset of FOXO-regulated genes” (Breast Cancer Research : BCR, 2014).

System: MCF-7
Test: Cell cycle analysis by flow cytometry (propidium iodide)
Format: cell-based, human
Details: MCF7 and U2OS with siRNA knockdown; data not shown

Structure (SMILES): O=c1[nH]cc(F)c(=O)[nH]1 [5-fluorouracil]
- cell cycle arrest response (control): potent p53-dependent cell cycle arrest response
